Our source for the IC50 values is BindingDB's records for doi:10.1021/acs.jnatprod.7b00282 (Chiba University, 2017).

Each structure is given as a SMILES string.

The experiment in a line: Inhibition of recombinant mouse N-terminal FLAG-tagged Notch1 (1704 to 2531 residues) expressed in human LS174T cells assessed as reduction in doxycycline-induced NICD expression after 12 hrs by Bright-Glo luciferase reporter gene assay.

With `C[C@@H]1C[C@@]2(N=CCS2)[C@]2(O)O[C@@H]3C[C@@]4(C=O)[C@@H](CC[C@@H]5[C@@H]4CC[C@]4(C)[C@@H](C6=CC(=O)OC6)[C@H](O)C[C@]54O)C[C@H]3O[C@@H]2O1`, the half-inhibitory concentration (IC50) came out at 700 nM. Under `C[C@@H]1C[C@@]2(NCCS2)[C@]2(O)O[C@@H]3C[C@@]4(C=O)[C@@H](CC[C@@H]5[C@@H]4CC[C@]4(C)[C@@H](C6=CC(=O)OC6)CC[C@]54O)C[C@H]3O[C@@H]2O1` stands 2000 nM; under `C[C@@H]1C[C@@]2(NC(=O)CS2)[C@]2(O)O[C@@H]3C[C@@]4(C=O)[C@@H](CC[C@@H]5[C@@H]4CC[C@]4(C)[C@@H](C6=CC(=O)OC6)CC[C@]54O)C[C@H]3O[C@@H]2O1`, 300 nM. Under `COC(=O)[C@@]1(O)C[C@@H](C)O[C@H]1O[C@@H]1C[C@@H]2CC[C@@H]3[C@H](CC[C@]4(C)[C@@H](C5=CC(=O)OC5)[C@H](O)C[C@]34O)[C@@]2(C=O)C[C@H]1O` stands 17300 nM. The figure for `CC(=O)O[C@H]1C[C@@H](C)O[C@H]2O[C@@H]3C[C@@H]4CC[C@@H]5[C@H](CC[C@]6(C)[C@@H](C7=CC(=O)OC7)CC[C@]56O)[C@@]4(C=O)C[C@H]3O[C@]21O` [CHEBI:2867] is 300 nM. For the compound `C[C@@H]1C[C@H](O)[C@]2(O)O[C@@H]3C[C@@]4(C=O)[C@@H](CC[C@@H]5[C@@H]4CC[C@]4(C)[C@@H](C6=CC(=O)OC6)CC[C@]54O)C[C@H]3O[C@@H]2O1` [CHEBI:3329], the IC50 was 800 nM.

Turning to `C[C@@H]1CC(=O)[C@]2(O)O[C@@H]3C[C@@]4(C=O)[C@@H](CC[C@@H]5[C@@H]4CC[C@]4(C)[C@@H](C6=CC(=O)OC6)CC[C@]54O)C[C@H]3O[C@@H]2O1` [CHEBI:9913], the IC50 was determined as 2400 nM.

Consider `C[C@@H]1C[C@@]2(N=CCS2)[C@]2(O)O[C@@H]3C[C@@]4(C=O)[C@@H](CC[C@@H]5[C@@H]4CC[C@]4(C)[C@@H](C6=CC(=O)OC6)CC[C@]54O)C[C@H]3O[C@@H]2O1` [Uscharin], for which the IC50 was 400 nM.
